Assay results taken from the NIST ThermoML archive (doi:10.1021/je800026p).
± gives the expanded uncertainty stated by the source.

Settings: 101.33 kPa, Liquid; for speed of sound: Sing-around technique in a fixed-path interferometer; for mass density: Vibrating tube method

SMILES | speed of sound (288.15 K) | mass density (288.15 K) | speed of sound (293.15 K) | mass density (293.15 K) | speed of sound (298.15 K) | mass density (298.15 K) | speed of sound (303.15 K) | mass density (303.15 K) | speed of sound (308.15 K) | mass density (308.15 K)
CCCCN [1-butanamine] | 1296.1 ± 2.2 m/s | 742.865 ± 0.58 kg/m3 | 1273.6 ± 2.2 m/s | 738.096 ± 0.58 kg/m3 | 1250 ± 2.2 m/s | 733.301 ± 0.57 kg/m3 | 1228.9 ± 2.2 m/s | 728.477 ± 0.57 kg/m3 | 1205.7 ± 2.2 m/s | 723.625 ± 0.56 kg/m3
CCCCCCOCCOCCO [2-(2-hexyloxyethoxy)ethanol] | 1405.2 ± 2.2 m/s | 936.901 ± 0.77 kg/m3 | 1388.1 ± 2.2 m/s | 932.917 ± 0.76 kg/m3 | 1371.1 ± 2.2 m/s | 928.926 ± 0.76 kg/m3 | 1354.3 ± 2.2 m/s | 924.931 ± 0.75 kg/m3 | 1337.7 ± 2.2 m/s | 920.933 ± 0.75 kg/m3
CCCCNCCCC [dibutylamine] | 1289.2 ± 2.2 m/s | 766.115 ± 2.1 kg/m3 | 1269.5 ± 2.2 m/s | 762.022 ± 2.1 kg/m3 | 1246.7 ± 2.2 m/s | 757.784 ± 2.1 kg/m3 | 1226.7 ± 2.2 m/s | 752.284 ± 2 kg/m3 | 1207 ± 2.2 m/s | 748.17 ± 2 kg/m3
CCCCN(CCCC)CCCC [tributylamine] | 1285 ± 2.2 m/s | 781.336 ± 0.61 kg/m3 | 1266.4 ± 2.2 m/s | 777.632 ± 0.61 kg/m3 | 1247.6 ± 2.2 m/s | 773.913 ± 0.6 kg/m3 | 1229 ± 2.2 m/s | 770.183 ± 0.6 kg/m3 | 1210.4 ± 2.2 m/s | 766.44 ± 0.6 kg/m3
